The record followed here is paper PMC7616177, “From structure to clinic: Design of a muscarinic M1 receptor agonist with the potential to treat Alzheimer’s disease” (Cell, 2021).

The term pKi denotes the Ki on a negative log10 scale, so that one unit is a factor of ten. As usually defined, the pEC50 is the EC50 on a negative log10 scale, so that one unit is a factor of ten. In general, Cmax refers to the highest concentration seen after dosing.

Data set [1] deals with T1, human M5-receptor (Homo sapiens, UniProt P08912).
T1 construct: expressed in transfected cells; host or cells: not described
T1 sequence (P08912 whole entry): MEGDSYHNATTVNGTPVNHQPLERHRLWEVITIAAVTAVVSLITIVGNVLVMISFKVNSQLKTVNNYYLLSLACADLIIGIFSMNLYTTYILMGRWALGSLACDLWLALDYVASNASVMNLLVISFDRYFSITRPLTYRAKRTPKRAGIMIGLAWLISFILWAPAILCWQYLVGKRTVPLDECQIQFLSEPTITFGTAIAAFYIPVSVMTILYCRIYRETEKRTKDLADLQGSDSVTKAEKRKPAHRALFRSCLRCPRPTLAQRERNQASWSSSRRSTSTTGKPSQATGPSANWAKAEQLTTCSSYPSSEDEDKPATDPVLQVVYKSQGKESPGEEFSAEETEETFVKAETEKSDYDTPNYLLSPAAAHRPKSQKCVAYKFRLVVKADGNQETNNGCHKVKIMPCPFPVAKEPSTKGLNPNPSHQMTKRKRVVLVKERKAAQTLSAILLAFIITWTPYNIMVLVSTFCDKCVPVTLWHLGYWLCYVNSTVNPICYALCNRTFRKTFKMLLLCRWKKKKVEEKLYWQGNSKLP
Nature of the data set: M5-receptor functional agonist assay. Type of data set: cell-based.

The target in data set [2] is T2, M4-receptor (Homo sapiens, UniProt P08173).
T2 sequence (P08173 1-479): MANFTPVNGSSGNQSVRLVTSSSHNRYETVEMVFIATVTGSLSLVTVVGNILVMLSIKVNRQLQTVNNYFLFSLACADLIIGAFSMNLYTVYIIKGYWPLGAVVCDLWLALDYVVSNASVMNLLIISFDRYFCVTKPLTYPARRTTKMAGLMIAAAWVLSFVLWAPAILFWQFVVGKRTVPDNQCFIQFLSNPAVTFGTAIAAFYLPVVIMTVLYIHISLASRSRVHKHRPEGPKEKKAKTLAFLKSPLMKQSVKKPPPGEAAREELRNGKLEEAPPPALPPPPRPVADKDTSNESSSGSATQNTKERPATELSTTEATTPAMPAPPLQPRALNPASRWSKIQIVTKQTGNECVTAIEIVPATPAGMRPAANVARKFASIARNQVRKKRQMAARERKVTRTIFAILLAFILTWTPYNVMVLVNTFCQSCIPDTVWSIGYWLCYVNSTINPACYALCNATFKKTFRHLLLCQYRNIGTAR
Nature of the data set: [3H]-NMS equilibrium radioligand binding, M4. The method, then: Non-specific binding (NSB) was determined in the presence of 1 μM atropine). Reactions were terminated by rapid filtration onto GF/B filter paper (Whatman, Maidstone, UK) and three washes with 3 mL ice-cold 0.9% NaCl using a Brandel harvester (M-24TI; Brandel, Fort Lauderdale, FL). Membrane bound radioactivity was determined by liquid scintillation (Ultima Gold; PerkinElmer) counting.
Data was analyzed using PRISM (GraphPad). For saturation binding, non-specific and total binding data were analyzed to a one site binding model. DPM was converted to fmol/mg to compare across constructs. […] […] The Cheng Prusoff equation was used to estimate pKi ([Cheng and Prusoff, 1973]).

Data set [3] deals with CA1 pyramidal cells. Nature of the data set: Electrophysiological recordings in rat hippocampal slices. The format is cell-based. Conditions: read-out: Spontaneous firing rate of CA1 pyramidal cells EC50.
Data set [4] deals with T3, human M1 receptor (Homo sapiens, UniProt P11229).
T3 construct: expressed in transfected cells
T3 sequence (P11229 1-460): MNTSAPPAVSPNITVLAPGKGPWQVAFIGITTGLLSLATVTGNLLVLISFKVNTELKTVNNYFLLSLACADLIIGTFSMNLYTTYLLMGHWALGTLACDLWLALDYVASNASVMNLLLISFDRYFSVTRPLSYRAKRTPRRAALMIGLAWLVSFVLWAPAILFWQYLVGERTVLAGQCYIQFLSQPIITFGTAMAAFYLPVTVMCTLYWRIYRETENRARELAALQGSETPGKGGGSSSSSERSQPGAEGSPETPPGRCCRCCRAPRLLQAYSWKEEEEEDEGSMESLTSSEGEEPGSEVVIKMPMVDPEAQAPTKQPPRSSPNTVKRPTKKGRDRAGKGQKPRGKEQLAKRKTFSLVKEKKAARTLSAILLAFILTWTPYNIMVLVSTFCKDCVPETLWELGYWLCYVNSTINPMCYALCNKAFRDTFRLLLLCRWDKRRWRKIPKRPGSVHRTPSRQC
Nature of the data set: Interaction with ACh in IP1 assay after phenoxybenzamine receptor depletion (Schild). The format is cell-based.

In data set [5] the test system is Cynomolgus macaques. Nature of the data set: Resting state qEEG in non-human primates. The format is in vivo, Macaca fasicularis. Conditions: subcutaneous, 0.3 and 3 mg/kg. From the text:
6 adult male Cynomolgus macaques (Macaca fasicularis; 8-10 kg; 12-15 years old) were used for EEG studies. These animals had been used previously on other studies and were not considered to be pharmacologically naive. Subjects were housed in a temperature-controlled recording room and are maintained on a 12-hour light/dark cycle. The animals had access to water ad libitum and were fed a full daily regimen of food each day (Purina Animal Nutrition, Gray Summit, MO) enriched with fresh fruit and/or vegetables. All studies are conducted in compliance with USDA, NIH and SRI International IACUC guidelines. SRI International is an AAALAC accredited institution. […] Following the acclimation period, animals were dosed subcutaneously with vehicle or compound and EEG activity was recorded for 120 min. […]
Data was analyzed using existing, customized MATLAB scripts with the EEGLAB toolbox. […] Mean absolute power, log transformed absolute power, and relative power was calculated based on each frequency band’s contribution to the total absolute power (i.e., % power). The mean normalized power was subsequently calculated by dividing each frequency band’s absolute power in the drug condition with the corresponding power in the control condition for each individual animal (i.e., use each animal as its own control) and then average across subjects. […]

Data set [6] is described as follows: 4-day repeat dose tolerability assessment in dogs. Particulars: beagle, dog.

The structures appear in SMILES notation. pEC50, pKi: −log10 of the molar value.

On to `CCOC(=O)N1CCC[C@H](N2CCC(C(=O)NC3(C)CCC3)CC2)CC1` [HTL9936, ethyl (S)-4-(4-((1-methylcyclobutyl)carbamoyl)piperidin-1-yl)azepane-1-carboxylate], for which the M5-receptor agonism entry in data set [1] is “no detectable agonism”. This compound had a pKi in data set [2] of 5.40. For the same compound, the pEC50 in data set [3] is 5.80. The same compound had a Kb in data set [4] of 6.31 µM. In addition, the qEEG power entry in data set [5] is on record as “increased delta power”. Also, the peak concentration (Cmax) at 4 day in data set [6] (plasma) is > 32000 ng/mL. In data set [6] (plasma (unbound)), this compound displayed a concentration at 4 day of 60 µM.
